Data: patent US9221900B2, “Methods for identifying safe and functional humanized antibodies” (AC IMMUNE S.A., priority 2010, dated 2015)
Entries after “also recorded” stand apart in the source; their conditions may differ.

Tests used:
[1] = test system: Aβ plaques in the brains of transgenic mice expressing hAPP; assay: Immunostaining of Aβ plaques in brain sections of hAPP transgenic mice; format: binding; conditions: hAPP transgenic mouse brain sections
Description: (§1) FIG. 1 provides graphs and immunohistochemical images corresponding to the experiments described in Example 6.1 and 6.2. […] As a control, an anti-Aβ IgG monoclonal antibody with a N-terminal epitope was used. […] The mean (±SEM) of two assays is shown.

[2] = test system: mixed cortical cells from P1 rats; assay: Aβ1-42 oligomer cytotoxicity assay, MTT readout; format: cell-based, rat; conditions: for reversal of Aβ1-42 oligomer-mediated toxicity: mixed primary cortical cultures, different IgG backbones
Protocol: FIG. 2 provides graphs and immunocytochemical images corresponding to the experiments described in Example 6.3. […] An MTT assay was used to determine cell viability as described in the Methods section. The means (±SEM) of five independent experiments are shown. *P<0.05, **P<0.01. […] Neurotoxicity following extended Aβ1-42 oligomer treatment was tested by morphological analyses (C).
A non-specific IgG monoclonal antibody was used as a control in all experiments.
Rat primary cortical cultures were prepared from Sprague-Dawley rats (Charles River Laboratories L'Arbresle, France) at post-natal day 1, as described by Meberg and Miller (Meberg and Miller, 2003). Cerebellum and meninges were removed, and cortices were cut into small pieces and dissociated with enzymatic disruption at 37° C. in dissociation buffer (papaine, CaCl2, EDTA, and HEPES; all from Invitrogen, Carlsbad, Calif.). DNase (Invitrogen) was added for 10 min. Following dissociation, dispersed cortical neurons were plated onto poly-L-lysine (0.01%; mol. wt 150,000-300,000; Sigma) coated 6-well, 24-well, or 96-well tissue culture plates. For immunocytochemistry, cells were grown on coated glass coverslips, into 24-well plates. Cells were maintained in Neurobasal media (Invitrogen) without phenol-red, with the addition of L-glutamine (2 mM; Sigma), B27 supplement (Invitrogen), and penicillin/streptomycin (Sigma) in a humidified incubator at 37° C. and 5% CO2. Following 1 h and 30 min in culture, the media was replaced with astrocyte-conditioned medium. After a further 4 days in culture, cell proliferation was blocked by treatment with cytosine arabinoside (Ara-C) at 2.5 μM (Invitrogen). Under these culture conditions, 20% of cells were identified as neurons by NeuN/DAPI staining (not shown). Experiments using mixed cortical cultures were generally performed at days-in-vitro (“DIV”) 6 unless stated otherwise. Enriched microglia prepared from cortex and hippocampus were harvested as described for cortical cultures above. Cortex and hippocampus were put in DMEM containing high glucose and homogenized by pipetting with a 10 mL pipette and then with a syringe. The homogenate was centrifuged for 3 min at 1,000×g, and then resuspended in pre-warmed DMEM containing high glucose containing 10% FCS and penicillin/streptomycin (microglia media). The cell suspension was next transferred to a T75 tissue-culture flask and kept in a humidified incubator at 37° C. and 5% CO2 for 1 week. The flask was shaken to separate microglia from adherent cells, and collected and washed in DMEM. The resulting cells were resuspended in 1 mL microglia media, counted, and plated at 5×10^4 cells/well. To verify microglial enrichment, cells were stained with the astroglial and microglial markers GFAP and Iba1, respectively. Greater than 60% of cells stained positive for Iba1, with no cells staining for both GFAP and Iba1. Pure microglia were prepared from post-natal day 3 CX3CR1-GFP mice (Jackson Laboratories). Cortex and hippocampus were dissected and triturated in DMEM containing high glucose using a 10 mL pipette, and then with an 18 gauge needle. The homogenate was centrifuged for 3 min at 1,000 g, and then resuspended in pre-warmed DMEM containing high glucose, 10% FBS and penicillin/streptomycin (microglia media). The cell suspension was next transferred to a T75 tissue-culture flask and kept in a humidified incubator at 37° C. and 5% CO2 for 7-10 d. Microglia were isolated by shaking, collected and washed in DMEM. The resulting cells were resuspended in 1 mL microglia media, counted, and plated on tissue culture treated glass chamber slides at 5×10^4 cells/well for use in experiments.
The cytotoxicity of Aβ1-42 oligomers was tested on mixed cortical cultures at DIV 5. All antibodies, at a final concentration of 100 μg/mL, were co-incubated with Aβ1-42 oligomers for 30 min in serum-free cell culture medium at 37° C. before treatment of cells. […]

microglia = assay: Confocal imaging of microglial uptake of Aβ1-42 oligomers; format: cell-based, rat; conditions: for Aβ1-42 oligomer internalization into microglia, rank order: primary cortical microglia
Protocol: Aβ1-42 oligomers are shown in red, and blue is DAPI staining of DNA to show the microglia itself (A). An apical-to-distal slice was obtained from a three-dimensional image rendered from Z-stacks. Confocal imaging was performed on mixed cortical cells labeled for Aβ (red) and stained with DAPI (blue) as described in the Example Section under Materials and Methods. Microglia were identified and scanned for the maximum fluorescence intensity through a series of confocal stacks representing intracellular locations (B), and the total area of fluorescent signal above a minimum threshold was quantified (C). Each mark on the graph represents the total area of Aβ stained within a single cell. A minimum of 20 cells were analyzed for each treatment condition. Data were compared using one-way ANOVA followed by Tukey post-hoc multiple comparison. Means (±SEM) are shown. […] Red is Iba1 staining, green is HyLite Fluor-488-labeled Aβ1 42, and blue is DAPI staining. […] Statistical analysis was done using one-way ANOVA followed by Tukey post-hoc multiple comparison.
The ability of these different monoclonal antibody backbones to internalize Aβ1-42 oligomers into microglia was then compared using confocal imaging on Aβ1-42 oligomer treated primary cortical microglia. […] To verify that microglia are indeed the cells taking up Aβ1-42 complexed to monoclonal antibodies, the study was repeated using HiLyte Fluor-488 tagged Aβ1-42 and co-stained for the microglial marker Iba1.
Cells were grown on a glass coverslips. Following treatment, cells were quickly washed with PBS and then fixed with 4% paraformaldehyde for 20 min. After thorough washes, cells were immersed in 100% methanol for 10 min at −20° C. They were then washed again and incubated in a blocking solution, PBS containing 10% normal goat serum for 1 h at room temperature. After an overnight incubation with the primary antibody, cells were washed and incubated for 2 h with the secondary antibody, then washed and mounted on glass slides using ProLong Gold antifade reagent (Invitrogen). Epifluorescence and confocal images were acquired on a LSM 700 inverted microscope from Zeiss, using a 63× lens. Fluorescence intensity was measured in cell bodies delineated by saturated epifluorescence pictures. Z-stacks were rendered into a three-dimensional image using ImageJ 1.42 (National Institutes of Health, freeware) from which an apical to distal slice containing the labeled proteins was obtained. Cells treated with HyLite Fluor-488-tagged Aβ1-42 were treated in the same way except no primary or secondary antibodies were used to label for Aβ1-42.

enriched microglia = assay: TNFα release by enriched microglia; format: cell-based, rat; conditions: 24 h of treatment
Protocol: FIG. 6 provides a graph corresponding to the experiments described in Example 6.6. […] The release of TNFα by enriched microglia was measured following 24 h of treatment (see Methods). The mean (±SEM) of three independent experiments is shown. Statistical analysis was done using one-way ANOVA followed by Tukey post-hoc multiple comparison.
To link the increased microglia activity more directly to a downstream pro-inflammatory readout, the TNFα release by primary cell cultures enriched for microglia was measured ([…] Iba1^+, not shown). The release of pro-inflammatory TNFα by enriched microglia when treated with Aβ1-42 oligomers was reduced in the presence of all anti-Aβ monoclonal antibodies tested (FIG. 6). […] Thus, an anti-Aβ IgG4 monoclonal antibody may have a more desirable profile as compared to an anti-Aβ IgG1 monoclonal antibody, combining neuroprotective effects and ability to promote Aβ engulfment by microglia with limited microglial activation.
Rat cortical cultures enriched for microglia (>60% Iba1^+ of total DAPI^+ cells) were treated with 10 μM Aβ1-42 oligomers with or without 100 μg/mL antibodies for 6 h and 24 h. LPS (Sigma) at 1 μg/mL was used as a positive control stimulus. […]

Aβ1-42 = Aβ1-42 (Homo sapiens, UniProt P05067); assay: Aβ ELISA, binding to Aβ peptides and Aβ1-42 assembly states; set-up: purchased Bachem; conditions: ELISA; monomeric, oligomeric, fibers, oligomer assemblies
Sequence of Aβ1-42 (P05067 672-713): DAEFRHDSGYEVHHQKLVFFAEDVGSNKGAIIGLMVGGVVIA
Description: as §1
Murine anti-Aβ monoclonal antibodies were generated by immunizing mice with an Aβ peptide antigen using a liposomal vaccine formulation as previously described (Muhs et al., 2007). Several criteria were used to select candidate antibodies, including the ability to bind multiple Aβ species and to inhibit Aβ1-42 assembly into small cytotoxic peptide aggregates. A monoclonal murine mAb with an IgG2b backbone (mMABT) was selected for in vivo functionality studies using both single-transgenic murine mutant human APP and double-transgenic murine mutant human APP/PS1 models of Alzheimer's Disease. […] These ranged from monomeric and oligomeric Aβ1-42 fractions isolated by size-exclusion chromatography (SEC), mature Aβ1-42 fibers, to a more complex mixture of highly neurotoxic Aβ1-42 oligomer assemblies, ranging in size from dimers and trimers to higher molecular-weight multimers (see FIG. 8).

Substance: MABT: humanized anti-Aβ monoclonal antibody of IgG4 isotype, affinity matured and humanized form of mouse mMABT
- binding to Aβ plaques [1]: immunodecorated
- antibody-mediated increase in MTT signal under p38MAPK inhibition ([2]; 10 μM Aβ1-42 oligomers, 100 μg/ml antibody, 1 μM SB239063, 24 h): reduced to that of MABT-IgG1-D265A
- rescue from Aβ1-42 oligomer toxicity (MTT) ([2]; Aβ1-42 oligomer up to 5 μM, 24 h, MABT to oligomer molar ratio 1:7.5): complete rescue from toxicity
- reversal of Aβ1-42 oligomer-mediated toxicity [2]: full reversal of Aβ1-42 oligomer-mediated toxicity
- uptake of Aβ1-42 oligomers into microglia (microglia; mixed neuronal cultures, apparent from 30 minutes): mediated rapid uptake of Aβ1-42 oligomers into cellular profiles likely to be microglia
- Aβ1-42 oligomer internalization into microglia, rank order (microglia): MABT-IgG1>MABT>MABT-IgG1-D265A
- release of TNFα by enriched microglia treated with Aβ1-42 oligomers (enriched microglia): greatest effect
- binding to different Aβ1-42 peptide preparations (Aβ1-42): highly comparable among the different Aβ1-42 assembly states

Substance: MABT-IgG1: same antigen binding sequences as MABT on human IgG1 wild-type backbone with full FcγR-binding capacity
- reversal of Aβ1-42 oligomer-mediated toxicity [2]: full reversal of Aβ1-42 oligomer-mediated toxicity; also recorded: trended towards a smaller protective effect when compared to MABT
- microglial morphology and Iba1 staining (microglia; Aβ1-42 in combination with antibody): more condensed nuclei and brighter Iba1 staining
- Aβ1-42 oligomer internalization into microglia, rank order (microglia): MABT-IgG1>MABT>MABT-IgG1-D265A
